Ends that are not written are not given here.
Legend:
A. baumannii 19606 [1] = assay: Bactericidal assay of kanamycin with/without HNP1, no preincubation; type: cell-based, Acinetobacter baumannii; settings: 0–100 μg/ml, LB broth, 24 h
A. baumannii 19606 [2] = assay: Biofilm formation assay; type: cell-based, Acinetobacter baumannii; settings: for Biofilm-enhancing activity of HNP1 mutants (CV staining): HNP1 Ala-scan mutants and analogs, Fig. 6F
Shigella = settings: sub-lethal concentrations; ref [78]; cited from earlier work
Staphylococcus = settings: ref [26]; cited from earlier work
A. baumannii 19606 [3] = assay: Real colony count bactericidal assay in LB broth; type: cell-based, Acinetobacter baumannii; settings: 4 μM
[4] = system: S. aureus, P. aeruginosa, and A. baumannii; settings: various bacteria, including S. aureus, ref [24]–[26]; cited from earlier work
[5] = molecular target: Fam-A11K-HNP1 (fluorescently labeled synthetic human neutrophil peptide 1) (human); assay: fluorescence polarisation
drug-resistant bacteria = settings: ref [84]; cited from earlier work
A. baumannii 19606 [6] = assay: Competitive inhibition by recombinant OmpA of HNP1-promoted biofilm formation; type: cell-based, Acinetobacter baumannii; settings: 0–2 μM OmpA

## NC[C@H]1O[C@H](O[C@H]2[C@H](O)[C@@H](O[C@H]3O[C@H](CO)[C@@H](O)[C@H](N)[C@H]3O)[C@H](N)C[C@@H]2N)[C@H](O)[C@@H](O)[C@@H]1O [Kanamycin]
A. baumannii 19606 [1]
  Kanamycin effect on bacterial growth and survival: dose-dependently inhibited bacterial growth and survival

## AFTCHCRR-SCYSTEYSYGTCTVMGINHRFCCL (disulfide) [HD6]
A. baumannii 19606 [2]; 4 μM, A. baumannii 19606
  Effect on biofilm formation (CV staining): slightly enhanced it

## ATCYCRTGRCATRESLSGVCEISGRLYRLCCR (disulfide (positions not given here)) [HD5]
A. baumannii 19606 [2]; 4 μM, A. baumannii 19606
  Effect on biofilm formation (CV staining): slightly enhanced it
Shigella
  Shigella infection of epithelial cells and tissues: promotes, at sub-lethal concentrations, Shigella infection

## HBD1: human β-defensin (DHYNCVSSGGQCLYSACPIFTKIQGTCYRGKAKCCK; ends and bridges not checked; cysteine pairing not given here; UniProt P60022 33-68, looked up)
A. baumannii 19606 [2]; 4 μM, A. baumannii 19606
  Effect on biofilm formation (CV staining): inactive in promoting biofilm formation

## HBD3: human β-defensin 3, cited only (GIINTLQKYYCRVRGGRCAVLSCLPKEEQIGKCSTRGRKCCRRKK; ends and bridges not checked; cysteine pairing not given here; UniProt P81534 23-67, looked up)
Staphylococcus
  Effect on biofilm formation: inhibitory against biofilm formation

## I6A: HNP1 Ala-substitution mutant
A. baumannii 19606 [2]
  Biofilm-enhancing activity of HNP1 mutants (CV staining): significant decrease in biofilm enhancement

## I20A/L25A: HNP1 Ala-substitution mutant
A. baumannii 19606 [2]
  Biofilm-enhancing activity of HNP1 mutants (CV staining): significant decrease in biofilm enhancement

## LL37: human cathelicidin (LLGDFFRKSKEKIGKEFKRIVQRIKDFLRNLVPRTES; Antibacterial peptide LL-37; UniProt P49913 134-170, looked up)
A. baumannii 19606 [2]; 4 μM, A. baumannii 19606
  Effect on biofilm formation (CV staining): significantly inhibited biofilm formation
A. baumannii 19606 [3]
  Bacterial killing in LB broth: killing of the bacteria even in the presence of LB broth
[4]
  Effect on biofilm formation: inhibit biofilm formation by various bacteria

## OmpA-ΔL1L2 (full-length OmpA with extracellular loops L1 and L2 deleted) (natural protein)
[5]
  fold decrease of binding against full-length OmpA: 3 fold

## R15A: HNP1 Ala-substitution mutant
A. baumannii 19606 [2]
  Biofilm-enhancing activity of HNP1 mutants (CV staining): significant decrease in biofilm enhancement

## T18A: HNP1 Ala-substitution mutant
A. baumannii 19606 [2]
  Biofilm-enhancing activity of HNP1 mutants (CV staining): significant decrease in biofilm enhancement

## TM-ΔL1L2 (transmembrane domain of OmpA with extracellular loops L1 and L2 deleted) (domain or fragment)
[5]
  fold decrease of binding against the transmembrane domain of OmpA: 3 fold

## VCSCRLVFCRRTELRVGNCLIGGVSFTYCCTRV (disulfide (positions not given here)) [HNP4]
A. baumannii 19606 [2]; 0–32 μM, LB broth, 96-well plate, 24 h, 37 °C
  Effect on biofilm formation (CV staining): largely inactive
A. baumannii 19606 [2]; 4 μM, A. baumannii 19606
  Effect on biofilm formation (CV staining): inactive in promoting biofilm formation

## W26A-HNP1: dimerization-debilitating analog
A. baumannii 19606 [2]
  Biofilm-enhancing activity of HNP1 mutants (CV staining): completely lost their biofilm-enhancing activity

## colistin
drug-resistant bacteria
  Potentiation of antibacterial activity of classic antibiotics: potentiate the antibacterial activity of classic antibiotics

B1: full-length recombinant OmpA (outer membrane protein A) of Acinetobacter baumannii ATCC 19606 (natural protein)
chain: GVTVTPLLLGYTFQDSQHNNGGKDGNLTNGPELQDDLFVGAALGIELTPWLGFEAEYNQVKGDVDGASAGAEYKQKQINGNFYVTSDLITKNYDSKIKPYVLLGAGHYKYDFDGVNRGTRGTSEEGTLGNAGVGAFWRLNDALSLRTEARATYNADEEFWNYTALAGLNVVLGGHLKPAAPVVEVAPVEPTPVAPQPQELTEDLNMELRVFFDTNKSNIKDQYKPEIAKVAEKLSEYPNATARIEGHTDNTGPRKLNERLSLARANSVKSALVNEYNVDASRLSTQGFAWDQPIADNKTKEGRAMNRRVFATITGSRTVVVQPGQEAAAPAAAQ
[5]
  Kd: 500 nM

B2: OmpA: recombinant A. baumannii outer membrane protein A with His tag (protein)
chain: GVTVTPLLLGYTFQDSQHNNGGKDGNLTNGPELQDDLFVGAALGIELTPWLGFEAEYNQVKGDVDGASAGAEYKQKQINGNFYVTSDLITKNYDSKIKPYVLLGAGHYKYDFDGVNRGTRGTSEEGTLGNAGVGAFWRLNDALSLRTEARATYNADEEFWNYTALAGLNVVLGGHLKPAAPVVEVAPVEPTPVAPQPQELTEDLNMELRVFFDTNKSNIKDQYKPEIAKVAEKLSEYPNATARIEGHTDNTGPRKLNERLSLARANSVKSALVNEYNVDASRLSTQGFAWDQPIADNKTKEGRAMNRRVFATITGSRTVVVQPGQEAAAPAAAQ
modifications: left off: His tag, end not stated, state not stated
A. baumannii 19606 [6]; 8 μM HNP1
  Effect of recombinant OmpA on HNP1-promoted biofilm formation: dose-dependently inhibited biofilm formation promoted by HNP1
A. baumannii 19606 [6]; no HNP1
  Effect of recombinant OmpA on biofilm formation without HNP1: little effect on biofilm formation

Source: publication PMC12216189 (Nature Communications, 2025)
